Columns and labels:
latent HIV LTR = test: Activation of latent HIV LTR in J-Lat/S-Lat latently infected cell lines (GFP reporter, FACS); type: cell-based, HIV-1; conditions: for de-repression / activation of latent HIV LTR: single agents, J-Lat/S-Lat or 1G5 cells, FIG. 5
Experimental: A) S-Lat 46, J-Lat P32, J-Lat A2, J-Lat 11.1, S-Lat 24, S-Lat 9 and […], and GFP expression was monitored by FACS analysis to determine activation of the latent LTR. B) J-Lat P32 and (C) S-Lat 30 Jurkats and SupT1 cell lines harbouring latently infected HIV were either untreated or treated with 2, 5 or 10 mM LiCl as indicated. Expression of HIV-LTR driven P24 and GFP, and endogenous Wnt target genes AXIN2, MMP9, TCF1, as well as control GAPDH and NFkB target genes TLR2 and ICAM1 was monitored by qRT-PCR 72 hours after treatment. Expression data are presented as fold induction normalized to Cyclophillin A control.
(§1) Expression data are presented as fold induction normalized to Cyclophillin A control.

latently infected PBMCs = test: Primary PBMC latency model, HIV expression after treatment; type: cell-based; conditions: PBMCs infected with LTR-Tat-IRES-GFP virus, sorted five days after infection
From the text: PBMCs were infected with VSV-G pseudotyped LTR-Tat-IRES-GFP virus particles and examined establishment of a latent phenotype, as in the cell line latency models (J-Lat/S-Lat). Briefly, PBMCs were Ficoll-purified from buffycoats of healthy donors, activated with phytohemagglutinin (PHA-L) and Interleukin-2 (IL-2), followed by virus infection. Five days after infection, GFP negative cells were sorted by FACS, placed in culture. […] Thus, even in the context of a fully activated T cell, integration of HIV at select sites will lead to the suppression of HIV transcription.

[1] = test system: HIV LTR nucleosomes (DHS1, nuc-1); test: PCR-based MNase mapping of latent HIV LTR nucleosome structure; type: cell-based
From the text: The high resolution dynamic nucleosomal structure of latently integrated HIV LTR is mapped in presence or absence of Wnt stimulation.
It is an aspect of this invention that this synergistic effect on LTR nucleosome structure extends to other LTR de-repressors.

[2] = test system: NFkB target genes TLR2 and ICAM1; test: qRT-PCR of NFkB target genes in latent HIV-infected Jurkat/SupT1 cell lines; type: cell-based
Experimental: as §1
(§2) Latent HIV-infected S-Lat 30 (A) and J-LatP32 (B) were treated with Wnt3A or control conditioned media. Relative mRNA expression levels of endogenous Wnt target genes AXIN2, ZCCHC12, TCF1, MMP9, the HIV P24 Gag and the LTR-reporter GFP, control (GAPDH) and NFkB target genes were quantitated by qRT-PCR. Expression data are presented as fold induction normalized to Cyclophillin A control.
(§3) A) S-Lat 46, J-Lat P32, J-Lat A2, J-Lat 11.1, S-Lat 24, S-Lat 9 and S-Lat 30 latently infected Jurkat and SupT1 cell lines were treated with Lithium Chloride (10 mM) for 2 hours, and GFP expression was monitored by FACS analysis to determine activation of the latent LTR. B) J-Lat P32 and (C) S-Lat 30 Jurkats and SupT1 cell lines harbouring latently infected HIV were either untreated or treated with 2, 5 or 10 mM LiCl as indicated. Expression of HIV-LTR driven P24 and GFP, and endogenous Wnt target genes AXIN2, MMP9, TCF1, as well as control GAPDH and NFkB target genes TLR2 and ICAM1 was monitored by qRT-PCR 72 hours after treatment. Expression data are presented as fold induction normalized to Cyclophillin A control.
as §2, with “In addition, latent” for “Latent”

[3] = test system: Wnt target genes AXIN2, TCF7(TCF1), MMP9, ZCCHC12, MMP2; test: qRT-PCR of endogenous Wnt target genes in latent HIV-infected Jurkat/SupT1 cell lines; type: cell-based
Experimental: as §1, §2
as §3, with “B) J-Lat P32 and (C) S-Lat 30 Jurkats and SupT1 cell lines harbouring latently infected HIV were either untreated or treated with 2, 5 or 10 mM LiCl as indicated.” left out, “Expression data are presented as fold induction normalized to Cyclophillin A control.” left out
as §2, with “In addition, latent” for “Latent”, “Expression data are presented as fold induction normalized to Cyclophillin A control.” left out

[4] = test system: latent HIV (P24 Gag, LTR-reporter GFP); test: qRT-PCR of HIV P24 Gag and LTR-reporter GFP mRNA in latent HIV-infected cell lines; type: cell-based
From the text: (§4) A) Exogenous expression of S33Y β-catenin in S-Lat30 latent HIV infected cell line results in activation of TCF/LEF-driven TOPFLASH luciferase activity. […] S33Y β-catenin expression also results in a concomitant activation of latent HIV in S-Lat30 HIV infected cell line as quantitated by increased mRNA expression of HIV P24 Gag and the LTR-reporter GFP. Expression data are presented as fold induction normalized to Cyclophillin A control.
as §2
as §2, with “In addition, latent” for “Latent”, “control. […]” for “control.”

TCF/LEF-driven TOPFLASH = TCF/LEF-driven TOPFLASH luciferase reporter in S-Lat30; type: cell-based; conditions: exogenous expression (nucleofection) in S-Lat30; FIG. 6A
From the text: as §4
For example, activation of the Wnt signaling pathway may be measured/quantitated by an increase In TCF-driven transcription in the cell after introduction of TOPFLASH (plasmid with tandem TCF/LEF consensus sites driving expression of the luciferase gene) into the cell via transfection/nucleofection. Increase in TOPFLASH (TCF-driven) and not FOPFLASH (TCF-mutant reporter) indicates activation of the Wnt signaling pathway.
S33Y β-catenin constitutively active mutant: Transfection (by nucleofection) of latent HIV infected cell lines with an expression vector for a constitutively active form of β-catenin, the molecular effector of the Wnt signaling pathway results in activation of latent HIV.

[5] = Wnt3A conditioned media, S-Lat 30 and J-LatP32, FIG. 7
[6] = exogenous expression in S-Lat30, FIG. 6B

**Q.** For `Cc1c[nH]c(-c2cnc(NCCNc3ccc(C#N)cn3)nc2-c2ccc(Cl)cc2Cl)n1` [CHIR-99021, 6-(2-(4-(2,4-Dichlorophenyl)-5-(4-methyl-1H-imidazol-2-yl)-pyrimidin-2-ylamino)ethyl-amino)-nicotinonitrile], which “activation of the latent LTR (GFP expression by FACS)” value (latent HIV LTR; 1 μM, 24 hours, J-Lat P44, S-Lat 24, J-Lat P21, J-Lat 11.1, S-Lat 9, S-Lat 30, FIG. 8) is on record?
**A.** activation of the HIV LTR

**Q.** For `CCCCCCCCCCCCCC(=O)O[C@@H]1[C@@H](C)[C@@]2(O)[C@@H](C=C(CO)C[C@]3(O)C(=O)C(C)=C[C@@H]23)[C@@H]2C(C)(C)[C@]12OC(C)=O` [PMA], which “HIV expression in GFP negative sorted infected PBMCs” value (latently infected PBMCs) is on record?
**A.** activated HIV expression

**Q.** What about the “loosely positioned nucleosomes over DHS1 (MNase mapping)” value ([1]; PMA stimulation) of the same molecule?
**A.** disappear

**Q.** For `CC(=O)O[C@@]12C[C@@H](C)[C@@]3(O)[C@@H](C=C(CO)C[C@]4(O)C(=O)C(C)=C[C@@H]34)[C@@H]1C2(C)C` [Prostratin], which “mRNA expression of NFkB target genes TLR2, ICAM1 (RT-PCR)” value ([2]; Lithium 1 mM-10 mM, Prostratin as positive control, FIG. 9) is on record?
**A.** activation of the NFkB target genes TLR2 and ICAM

**Q.** `CCCC(CCC)C(=O)O` [VPA, valproic acid] was tested. Which “de-repression / activation of latent HIV LTR” value (shortened to “de-repression / activation”) (latent HIV LTR) did it give?
**A.** marginal activation

**Q.** What about the “remodelling of nuc-1 (MNase mapping)” value ([1]; co-treatment of VPA with Wnt stimulation) of the same molecule?
**A.** dramatic remodelling of the repressive nuc-1

**Q.** For TNFa, which “HIV expression in GFP negative sorted infected PBMCs” value (latently infected PBMCs) is on record?
**A.** activated HIV expression

**Q.** Which “de-repression / activation” value (latent HIV LTR) does the source give for Wnt3A here?
**A.** de-repression of latent HIV LTR

**Q.** And the “activation of endogenous Wnt target genes (qRT-PCR)” value [3, 5]?
**A.** activates latent HIV and endogenous Wnt target genes

**Q.** And the “activation of NFkB target genes (qRT-PCR)” value [2, 5]?
**A.** not NFkB target genes

**Q.** And the “activation of latent HIV (P24 Gag and LTR-reporter GFP mRNA, qRT-PCR)” value [4, 5]?
**A.** activates latent HIV

B1: R-spondin: LGR ligand, 27 kDa protein, used as R-spondin1-conditioned medium from HEK293T (protein, UniProt Q2MKA7 21-263, looked up)
R-spondin-1: SRGIKGKRQRRISAEGSQACAKGCELCSEVNGCLKCSPKLFILLERNDIRQVGVCLPSCPPGYFDARNPDMNKCIKCKIEHCEACFSHNFCTKCKEGLYLHKGRCYPACPEGSSAANGTMECSSPAQCEMSEWSPWGPCSKKQQLCGFRRGSEERTRRVLHAPVGDHAACSDTKETRRCTVRRVPCPEGQKRRKGGQGRRENANRNLARKESKEAGAGSRRRKGQQQQQQQGTVGPLTSAGPA
modifications: conditioned medium
notes: LGR ligand, 27 kDa protein, used as R-spondin1-conditioned medium from HEK293T
**Q.** Which “de-repression / activation” value (latent HIV LTR) does the source give for B1 here?
**A.** de-repression of latent HIV LTR

B2: S33Y β-catenin: constitutively active β-catenin mutant, expressed from a nucleofected expression vector (protein, UniProt P35222 2-781, looked up, variant S33Y)
Catenin beta-1: ATQADLMELDMAMEPDRKAAVSHWQQQSYLDYGIHSGATTTAPSLSGKGNPEEEDVDTSQVLYEWEQGFSQSFTQEQVADIDGQYAMTRAQRVRAAMFPETLDEGMQIPSTQFDAAHPTNVQRLAEPSQMLKHAVVNLINYQDDAELATRAIPELTKLLNDEDQVVVNKAAVMVHQLSKKEASRHAIMRSPQMVSAIVRTMQNTNDVETARCTAGTLHNLSHHREGLLAIFKSGGIPALVKMLGSPVDSVLFYAITTLHNLLLHQEGAKMAVRLAGGLQKMVALLNKTNVKFLAITTDCLQILAYGNQESKLIILASGGPQALVNIMRTYTYEKLLWTTSRVLKVLSVCSSNKPAIVEAGGMQALGLHLTDPSQRLVQNCLWTLRNLSDAATKQEGMEGLLGTLVQLLGSDDINVVTCAAGILSNLTCNNYKNKMMVCQVGGIEALVRTVLRAGDREDITEPAICALRHLTSRHQEAEMAQNAVRLHYGLPVVVKLLHPPSHWPLIKATVGLIRNLALCPANHAPLREQGAIPRLVQLLVRAHQDTQRRTSMGGTQQQFVEGVRMEEIVEGCTGALHILARDVHNRIVIRGLNTIPLFVQLLYSPIENIQRVAAGVLCELAQDKEAAEAIEAEGATAPLTELLHSRNEGVATYAAAVLFRMSEDKPQDYKKRLSVELTSSLFRTEPMAWNETADLGLDIGAQGEPLGYRQDDPSYRSFHSGGYGQDALGMDPMMEHEMGGHHPGADYPVDGLPDLGHAQDLMDGLPPGDSNQLAWFDTDL
**Q.** With B2 as the molecule, how does the “TCF-driven TOPFLASH luciferase activity” value (TCF/LEF-driven TOPFLASH) read?
**A.** activation of TCF-driven TOPFLASH luciferase activity

**Q.** What about the “mRNA expression of endogenous Wnt target genes AXIN2, MMP2, TCF1, ZCCHC12, MMP9” value [3, 6] of the same molecule?
**A.** increased mRNA expression of the endogenous Wnt target genes

**Q.** And the “mRNA expression of control gene GAPDH and NFkb target genes TLR2 and ICAM1” value [2, 6]?
**A.** not control gene GAPDH, or the NFkb target genes TLR2 and ICAM1

**Q.** And the “mRNA expression of HIV P24 Gag and LTR-reporter GFP” value [4, 6]?
**A.** increased mRNA expression of HIV P24 Gag as well as the LTR-reporter GFP
